# Source: ChEMBL document CHEMBL1201862, “PubChem BioAssay data set” (2004)
# Activity calls are given as the source filed them. Cut-off read from the data, not from the text of the source: actives have a measured IC50 and inactives only a lower limit.
# Target: Envelope glycoprotein gp160 (Human immunodeficiency virus 1, UniProt Q6QLK5)
# Assay: inhibitors of HIV fusion peptide binding, primary screen, biochemical, uHTS, fluorescence dequenching (AID 1986)
# Chain of Envelope glycoprotein gp160 (Q6QLK5 whole entry, the tested form may be a part): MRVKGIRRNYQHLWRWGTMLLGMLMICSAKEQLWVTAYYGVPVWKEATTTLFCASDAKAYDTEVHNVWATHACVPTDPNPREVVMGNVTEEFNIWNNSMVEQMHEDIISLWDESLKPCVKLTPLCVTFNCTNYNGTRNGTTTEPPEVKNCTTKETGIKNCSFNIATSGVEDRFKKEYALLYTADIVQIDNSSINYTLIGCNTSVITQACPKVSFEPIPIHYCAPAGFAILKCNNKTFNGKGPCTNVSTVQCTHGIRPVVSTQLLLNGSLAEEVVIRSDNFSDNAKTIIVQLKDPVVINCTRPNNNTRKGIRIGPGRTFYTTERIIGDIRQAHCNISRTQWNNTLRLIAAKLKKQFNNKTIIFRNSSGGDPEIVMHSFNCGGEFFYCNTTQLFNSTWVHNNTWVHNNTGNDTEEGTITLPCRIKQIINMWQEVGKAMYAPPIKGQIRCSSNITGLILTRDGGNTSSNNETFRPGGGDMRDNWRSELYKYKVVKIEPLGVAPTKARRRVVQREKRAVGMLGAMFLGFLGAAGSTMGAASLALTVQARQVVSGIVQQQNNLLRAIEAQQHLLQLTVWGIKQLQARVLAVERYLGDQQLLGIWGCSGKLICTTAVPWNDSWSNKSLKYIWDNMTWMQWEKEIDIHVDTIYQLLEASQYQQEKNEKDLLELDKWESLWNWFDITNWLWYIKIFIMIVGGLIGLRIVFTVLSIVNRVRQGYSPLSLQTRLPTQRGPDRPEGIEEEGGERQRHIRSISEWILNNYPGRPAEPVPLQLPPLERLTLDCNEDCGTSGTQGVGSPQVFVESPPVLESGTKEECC
row,Compound,IC50
1,COc1ccccc1NS(=O)(=O)c1cccc(N2C(=O)/C(=C\Nc3ccccc3C(=O)O)c3ccccc3C2=O)c1,13.1 µM (active)
2,COc1cc(/C=C2\C(=N)N3N=C(S(C)(=O)=O)SC3=NC2=O)ccc1OCCOc1ccccc1C,13.7 µM (active)
3,CSc1nnc(-c2ccccc2/N=C/c2c(C)nn(-c3ccc4ccccc4c3)c2O)c(O)n1,25.8 µM (active)
